These results are taken from patent publication US20240051954A1, “PYRROLO[3,2-B]PYRIDINE DERIVATIVES USEFUL IN TREATING CONDITIONS ASSOCIATED WITH CGAS” (NOVARTIS AG, priority 2020, published 2024).

Usually IC50 stands for the concentration that inhibits the measured activity by half.

This assay has as its target human truncated cGAS enzyme (147-522 human cGAS) (Homo sapiens (Human), UniProt Q8N884). As to the kind of experiment: Quantification of cGAS protein inhibition (cGAMP formation, LC-MS/MS). In kind it is biochemical. The note with it: 30 nM enzyme, 45 bp dsDNA (ISD) 5 μM, GTP and ATP 0.5 mM each, 1 h at room temperature; potential mixture of co-existing tautomers and/or racemates. How it is done: Example 52: Quantification of cGAS Protein Inhibition
A reagent buffer was prepared in filtered and autoclaved water according to the following: • 50 mM Tris-buffer pH 7.5 (1 M Tris-buffer pH 7.5, Invitrogen, Cat. No. 15567-027); • 50 mM NaCl (5 M NaCl, Sodium Chloride Solution, Sigma, 59222C-); • 5 mM MgCl2 (1 M MgCl2, Sigma, M1028); • 0.1 mM ZnCl2 (Zinc Chloride [7646-85-7], powder, Cell Culture Tested, Sigma, Z-0152); and • 0.001% Tween 20 (TWEEN 20, Sigma Aldrich, P1379-).
A buffer for the cGAS enzyme was prepared in filtered and autoclaved water according to the following: • 50 mM Tris-buffer pH 7.5; • 5 mM MgCl2; and • 0.001% Tween 20.
Compounds were dispensed to a […]. The human truncated cGAS enzyme (4.2 mg/mL 147-522 human cGAS, MW 43,909 g/mol) was stored in 50 mM Tris, 500 mM NaCl, 5% (v/v) glycerol at pH 8 and diluted in the cGAS buffer enzyme shortly before use. The enzyme solution was transferred into the reagent buffer to give a final concentration of 30 nM. The reaction was started by mixing the enzyme with ISD (a 45 bp double stranded DNA, MW 27,670 g/mol, 5 mM), GTP and ATP to a final concentration of 5 μM, 0.5 mM and 0.5 mM respectively in a final volume of 10 μl. The reaction plates were then centrifuged at 1000 rpm for 1 minute and incubated at room temperature for 1 h. After 1 h of incubation, [^15N5]-2′3′-cGAMP to a final concentration of 200 nM and 30 μL of 100% acetonitrile/0.175% of TFA were added to the reaction mixture. The plates were centrifuged at 1000 rpm for 1 minute before being sealed for 3 seconds at 170° C. using a ThermoScientific sealer (ALPS™ 50V) and an aluminum sealing cover (Pierce Seal, 4titude, Product Code: 4TI-0531).
The concentration of cGAMP was measured on a LC-MS/MS system consisting of a THERMO Dionex Ultimate LC system with a high pressure pump, an autosampler, a column heating compartment (Reinach, Switzerland) and a SCIEX Triple Quad 5500 (Framingham, MA, USA) mass spectrometer for detection. The sample plates were centrifuged for 10 minutes at 2000 rpm. Up to three plates were placed in the autosampler for injection. An aliquot of 10 μL of each sample was injected on an XBridge BEH Amide 3.5 μm, 2.1×50 mm column (P/N 186004859) with an XBridge BEH Amide 5 μm 2.1×5 mm VanGuard Cartridge (P/N 186007760) pre-column (both WATERS, MA, USA) held at 40° C. An isocratic flow of 1.0 mL/min solvent (60% ACN, 8 mM ammonium acetate, 5 mM ammonium hydroxide, 0.04% acetic acid) was applied and sprayed into the ion source of the mass spectrometers. The MS parameters were optimized based on the properties of the compounds to be detected and run in positive multi-reaction mode (MRM) based on the mass transitions. LC and MS parameters were also optimized to allow for a sample-to-sample measuring time of approximately 75 sec and a run time of 8 hours per 384-well plate. All data were analyzed with Excel; and the dose response curves were generated using the auto fitting function of XLfit. The IC50 was determined by plotting the cGAMP concentration ratio (cGAMP divided by the internal standard [^15N5]-2′3′-cGAMP) versus the concentration of compound.

Sequence of human truncated cGAS enzyme (147-522 human cGAS) (Q8N884 147-522): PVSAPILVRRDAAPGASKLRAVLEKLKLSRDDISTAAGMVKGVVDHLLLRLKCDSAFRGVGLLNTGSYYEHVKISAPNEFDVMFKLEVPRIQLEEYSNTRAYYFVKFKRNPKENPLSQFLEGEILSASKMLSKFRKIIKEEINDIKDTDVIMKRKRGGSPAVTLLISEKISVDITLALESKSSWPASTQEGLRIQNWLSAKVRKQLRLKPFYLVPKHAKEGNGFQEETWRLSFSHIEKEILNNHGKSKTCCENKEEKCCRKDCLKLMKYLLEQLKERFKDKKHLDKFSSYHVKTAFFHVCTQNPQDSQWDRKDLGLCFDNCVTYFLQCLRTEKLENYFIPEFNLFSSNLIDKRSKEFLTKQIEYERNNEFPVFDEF

With `COc1nc2c(-c3cn[nH]c3)c(-c3nnc(C(F)(F)F)[nH]3)n(C)c2cc1Cl` [Example 1, 6-chloro-5-methoxy-1-methyl-3-(1H-pyrazol-4-yl)-2-(5-(trifluoromethyl)-4H-1,2,4-triazol-3-yl)-1H-pyrrolo[3,2-b]pyridine], the half-maximal inhibitory concentration (IC50) was determined as 76 nM.

On to `COc1nc2c(-c3cn[nH]c3)c(-c3nnc(C(C)(F)F)[nH]3)[nH]c2cc1Cl` [Example 3, 6-chloro-2-(5-(1,1-difluoroethyl)-4H-1,2,4-triazol-3-yl)-5-methoxy-3-(1H-pyrazol-4-yl)-1H-pyrrolo[3,2-b]pyridine], for which the IC50 amounted to 32 nM.

As for `COc1nc2c(-c3cn[nH]c3)c(-c3nnc(C(C)=O)[nH]3)[nH]c2cc1Cl` [Example 6, 1-(5-(6-chloro-5-methoxy-3-(1H-pyrazol-4-yl)-1H-pyrrolo[3,2-b]pyridin-2-yl)-4H-1,2,4-triazol-3-yl)ethan-1-one], the IC50 came to 66 nM.

`COc1nc2c(-c3cn[nH]c3)c(-c3nnc(F)[nH]3)n(C)c2cc1Cl` [Example 9, 6-chloro-2-(5-fluoro-4H-1,2,4-triazol-3-yl)-5-methoxy-1-methyl-3-(1H-pyrazol-4-yl)-1H-pyrrolo[3,2-b]pyridine]: the half-inhibitory concentration (IC50) is 267 nM.

As for `COc1nc2c(-c3cn[nH]c3)c(-c3nnc[nH]3)n(C)c2cc1Cl` [Example 14, 6-chloro-5-methoxy-1-methyl-3-(1H-pyrazol-4-yl)-2-(4H-1,2,4-triazol-3-yl)-1H-pyrrolo[3,2-b]pyridine], the IC50 stood at 3520 nM.

In the case of `COc1nc2c(-c3cn[nH]c3)c(-c3nnc(C(=O)N(C)C)[nH]3)[nH]c2cc1Cl` [Example 16, 5-(6-chloro-5-methoxy-3-(1H-pyrazol-4-yl)-1H-pyrrolo[3,2-b]pyridin-2-yl)-N,N-dimethyl-4H-1,2,4-triazole-3-carboxamide], the IC50 amounted to 30 nM.

`COc1nc2c(-n3ccnc3)c(-c3nnc(C(=O)N(C)C)[nH]3)n(C)c2cc1Cl` [Example 17, 5-(6-chloro-3-(1H-imidazol-1-yl)-5-methoxy-1-methyl-1H-pyrrolo[3,2-b]pyridin-2-yl)-N,N-dimethyl-4H-1,2,4-triazole-3-carboxamide]: the IC50 was 116 nM.

With `COc1nc2c(-n3ccnc3)c(-c3nnc(C(OC)C(F)(F)F)[nH]3)n(C)c2cc1Cl` (centres unmarked) [Example 26, 6-chloro-3-(1H-imidazol-1-yl)-5-methoxy-1-methyl-2-(5-(2,2,2-trifluoro-1-methoxyethyl)-4H-1,2,4-triazol-3-yl)-1H-pyrrolo[3,2-b]pyridine], the IC50 was 107 nM.

Turning to `COCC(O)c1nnc(-c2c(-n3ccnc3)c3nc(OC)c(Cl)cc3n2C)[nH]1` (centres unmarked) [Example 29, 1-(5-(6-chloro-3-(1H-imidazol-1-yl)-5-methoxy-1-methyl-1H-pyrrolo[3,2-b]pyridin-2-yl)-4H-1,2,4-triazol-3-yl)-2-methoxyethan-1-ol], the IC50 is 295 nM.

For `COCC(F)(F)c1nnc(-c2c(-n3ccnc3)c3nc(OC)c(Cl)cc3n2C)[nH]1` [Example 30, 6-chloro-2-(5-(1,1-difluoro-2-methoxyethyl)-4H-1,2,4-triazol-3-yl)-3-(1H-imidazol-1-yl)-5-methoxy-1-methyl-1H-pyrrolo[3,2-b]pyridine], the IC50 came out at 186 nM.

On to `COc1nc2c(-n3ccnc3)c(-c3nnc(F)[nH]3)n(C)c2cc1Cl` [Example 33, 6-chloro-2-(5-fluoro-4H-1,2,4-triazol-3-yl)-3-(1H-imidazol-1-yl)-5-methoxy-1-methyl-1H-pyrrolo[3,2-b]pyridine], for which the half-maximal inhibitory concentration (IC50) came to 332 nM.

For `COCC(c1nnc(-c2c(-n3ccnc3)c3nc(OC)c(Cl)cc3n2C)[nH]1)N(C)C` (centres unmarked) [Example 36, 1-(5-(6-chloro-3-(1H-imidazol-1-yl)-5-methoxy-1-methyl-1H-pyrrolo[3,2-b]pyridin-2-yl)-4H-1,2,4-triazol-3-yl)-2-methoxy-N,N-dimethylethan-1-amine], the 50% inhibitory concentration (IC50) stood at 454 nM.

As for `COCC(c1nnc(-c2c(-c3cn[nH]c3)c3nc(OC)c(Cl)cc3n2C)[nH]1)N(C)C` (centres unmarked) [Example 37, 1-(5-(6-chloro-5-methoxy-1-methyl-3-(1H-pyrazol-4-yl)-1H-pyrrolo[3,2-b]pyridin-2-yl)-4H-1,2,4-triazol-3-yl)-2-methoxy-N,N-dimethylethan-1-amine], the IC50 amounted to 123 nM.

On to `COc1nc2c(-n3ccnc3)c(-c3nnc(/C(C)=N/OCCO)[nH]3)n(C)c2cc1Cl` [Example 40, (E/Z)-1-(5-(6-chloro-3-(1H-imidazol-1-yl)-5-methoxy-1-methyl-1H-pyrrolo[3,2-b]pyridin-2-yl)-4H-1,2,4-triazol-3-yl)ethan-1-one O-(2-hydroxyethyl)oxime], for which the half-inhibitory concentration (IC50) is 101 nM.

`COc1nc2c(-c3cn[nH]c3)c(-c3nnc(C(C)=O)[nH]3)n(C)c2cc1Cl` [Example 42, 1-(5-(6-chloro-5-methoxy-1-methyl-3-(1H-pyrazol-4-yl)-1H-pyrrolo[3,2-b]pyridin-2-yl)-4H-1,2,4-triazol-3-yl)ethan-1-one]: the half-inhibitory concentration (IC50) came to 66 nM.

Take `COc1nc2c(-c3cn[nH]c3)c(-c3nnc(C(=O)N(C)C)[nH]3)n(C)c2cc1Cl` [Example 43, 5-(6-chloro-5-methoxy-1-methyl-3-(1H-pyrazol-4-yl)-1H-pyrrolo[3,2-b]pyridin-2-yl)-N,N-dimethyl-4H-1,2,4-triazole-3-carboxamide]: the half-inhibitory concentration (IC50) worked out at 98 nM.

Regarding `COc1nc2c(-n3ccnc3)c(-c3nnc(C(F)(F)F)[nH]3)n(C)c2cc1Cl` [Example 45], the IC50 came out at 384 nM.

As for `COc1nc2c(-n3ccnc3)c(-c3nnc(C(F)(F)F)[nH]3)[nH]c2cc1Cl` [Example 46, 6-chloro-3-(1H-imidazol-1-yl)-5-methoxy-2-(5-(trifluoromethyl)-4H-1,2,4-triazol-3-yl)-1H-pyrrolo[3,2-b]pyridine], the IC50 was determined as 80 nM.

`Cn1c(-c2nnc(C(F)(F)F)[nH]2)c(-c2cn[nH]c2)c2nc(O)c(Cl)cc21` [Example 50, 6-chloro-1-methyl-3-(1H-pyrazol-4-yl)-2-(5-(trifluoromethyl)-4H-1,2,4-triazol-3-yl)-1H-pyrrolo[3,2-b]pyridin-5-ol]: the IC50 worked out at 741 nM.

Take `COc1nc2c(-n3ccnc3)c(-c3nnc(CN(C)C)[nH]3)n(C)c2cc1Cl` [Example 51, 1-(5-(6-chloro-3-(1H-imidazol-1-yl)-5-methoxy-1-methyl-1H-pyrrolo[3,2-b]pyridin-2-yl)-4H-1,2,4-triazol-3-yl)-N,N-dimethylmethanamine]: the half-inhibitory concentration (IC50) worked out at 308 nM.
